Data taken from publication doi:10.1101/2025.07.03.663083, “TMC1 and TMC2 are cholesterol-dependent scramblases that regulate membrane homeostasis in auditory hair cells” (bioRxiv, 2025).

Key:
Assay in all cases: proteoliposome scramblase assay, dithionite and BSA back-extraction of NBD fluorescence
Type in all cases: functional
FL CmTMC1 = biological target: T1, FL CmTMC1 (Chelonia mydas, UniProt Z9P3M8BL59); conditions: labelled compound; POPC/POPE/POPS 2:1:1 with 10% cholesterol, pH 7.4, 25 °C; lipid translocation, no headgroup specificity
T1 construct: full length, 1-955; His-GFP tag; Sf9 (baculovirus); reconstituted in liposomes
T1 sequence (Z9P3M8BL59 1-955): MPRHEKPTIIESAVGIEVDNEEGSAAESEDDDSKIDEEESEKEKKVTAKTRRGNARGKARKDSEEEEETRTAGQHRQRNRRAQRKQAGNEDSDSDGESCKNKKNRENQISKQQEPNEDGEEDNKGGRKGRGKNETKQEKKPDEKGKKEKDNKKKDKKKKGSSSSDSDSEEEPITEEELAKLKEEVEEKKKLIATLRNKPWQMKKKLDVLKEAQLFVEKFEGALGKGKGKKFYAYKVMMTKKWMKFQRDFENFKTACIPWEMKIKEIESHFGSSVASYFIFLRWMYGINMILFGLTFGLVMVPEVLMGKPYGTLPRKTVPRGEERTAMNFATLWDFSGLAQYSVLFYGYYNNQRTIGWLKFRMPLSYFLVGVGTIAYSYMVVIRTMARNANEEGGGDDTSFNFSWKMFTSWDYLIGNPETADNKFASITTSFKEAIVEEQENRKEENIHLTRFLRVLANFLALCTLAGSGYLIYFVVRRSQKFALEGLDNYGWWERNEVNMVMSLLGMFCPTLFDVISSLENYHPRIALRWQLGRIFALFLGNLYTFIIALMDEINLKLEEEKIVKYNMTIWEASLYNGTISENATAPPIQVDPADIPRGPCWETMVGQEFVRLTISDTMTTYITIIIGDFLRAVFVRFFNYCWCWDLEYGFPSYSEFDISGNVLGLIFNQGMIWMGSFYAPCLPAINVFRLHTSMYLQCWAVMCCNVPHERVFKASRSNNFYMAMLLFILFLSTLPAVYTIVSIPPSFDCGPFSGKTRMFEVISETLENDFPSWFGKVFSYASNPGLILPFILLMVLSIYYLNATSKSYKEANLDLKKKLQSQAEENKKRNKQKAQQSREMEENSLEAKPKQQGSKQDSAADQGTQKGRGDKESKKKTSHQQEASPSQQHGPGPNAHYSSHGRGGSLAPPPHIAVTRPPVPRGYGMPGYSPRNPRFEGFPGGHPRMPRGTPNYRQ

MuTMC2 (truncated) = biological target: T2, MuTMC2 (truncated) (Melopsittacus undulatus, UniProt Z9DQS5U608); conditions: labelled compound; POPC/POPE/POPS […] with […] cholesterol, pH […] °C; lipid translocation, no headgroup specificity
T2 construct: transmembrane core without N- and C-terminal domains; His-GFP tag kept; Sf9 (baculovirus); purified in DDM/CHS, reconstituted in liposomes
T2 sequence (Z9DQS5U608 211-807): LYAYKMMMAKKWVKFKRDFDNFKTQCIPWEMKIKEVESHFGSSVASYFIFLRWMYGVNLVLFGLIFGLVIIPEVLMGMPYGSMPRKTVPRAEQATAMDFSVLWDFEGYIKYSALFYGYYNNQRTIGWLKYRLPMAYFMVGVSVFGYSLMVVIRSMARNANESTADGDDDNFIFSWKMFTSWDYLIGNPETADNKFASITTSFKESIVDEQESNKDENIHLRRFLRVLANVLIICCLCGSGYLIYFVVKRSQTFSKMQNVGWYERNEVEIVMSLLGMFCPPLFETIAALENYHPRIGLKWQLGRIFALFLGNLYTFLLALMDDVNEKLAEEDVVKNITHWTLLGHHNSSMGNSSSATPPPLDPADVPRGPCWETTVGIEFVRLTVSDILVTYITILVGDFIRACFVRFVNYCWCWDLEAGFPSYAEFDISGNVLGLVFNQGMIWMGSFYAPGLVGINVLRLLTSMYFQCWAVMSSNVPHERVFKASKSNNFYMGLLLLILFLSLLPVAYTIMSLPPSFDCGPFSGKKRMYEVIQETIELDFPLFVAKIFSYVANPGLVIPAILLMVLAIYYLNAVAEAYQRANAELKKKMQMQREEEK

CmTMC1 (truncated) = biological target: T3, CmTMC1 (truncated) (Chelonia mydas, UniProt Z9P3M8BL59); conditions: labelled compound; POPC/POPE/POPS 2:1:1 with 10% cholesterol, pH 7.4, 25 °C; lipid translocation, no headgroup specificity
T3 construct: transmembrane core without N- and C-terminal domains; His-GFP tag kept; Sf9 (baculovirus); purified in DDM/CHS, reconstituted in liposomes
T3 sequence (Z9P3M8BL59 230-828): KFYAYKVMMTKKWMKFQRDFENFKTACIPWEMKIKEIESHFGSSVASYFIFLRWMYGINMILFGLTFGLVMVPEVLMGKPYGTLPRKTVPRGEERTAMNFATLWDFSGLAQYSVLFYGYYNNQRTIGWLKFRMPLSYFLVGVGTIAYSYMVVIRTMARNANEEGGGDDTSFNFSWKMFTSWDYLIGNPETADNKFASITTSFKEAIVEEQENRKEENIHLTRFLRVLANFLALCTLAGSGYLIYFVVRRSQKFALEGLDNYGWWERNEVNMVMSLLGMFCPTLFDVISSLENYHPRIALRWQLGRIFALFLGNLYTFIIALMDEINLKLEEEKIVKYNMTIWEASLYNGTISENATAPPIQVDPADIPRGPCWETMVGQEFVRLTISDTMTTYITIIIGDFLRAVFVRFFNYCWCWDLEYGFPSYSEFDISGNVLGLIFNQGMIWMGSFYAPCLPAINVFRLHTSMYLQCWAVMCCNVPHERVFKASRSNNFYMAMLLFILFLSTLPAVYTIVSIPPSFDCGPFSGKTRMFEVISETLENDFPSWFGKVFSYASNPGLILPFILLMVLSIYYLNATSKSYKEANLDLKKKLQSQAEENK

FL MuTMC2 = biological target: T4, FL MuTMC2 (Melopsittacus undulatus, UniProt Z9DQS5U608); conditions: labelled compound; POPC/POPE/POPS […] with […] cholesterol, pH […] °C; lipid translocation, no headgroup specificity
T4 construct: full length, 1-928; His-GFP tag; Sf9 (baculovirus); reconstituted in liposomes
T4 sequence (Z9DQS5U608 1-928): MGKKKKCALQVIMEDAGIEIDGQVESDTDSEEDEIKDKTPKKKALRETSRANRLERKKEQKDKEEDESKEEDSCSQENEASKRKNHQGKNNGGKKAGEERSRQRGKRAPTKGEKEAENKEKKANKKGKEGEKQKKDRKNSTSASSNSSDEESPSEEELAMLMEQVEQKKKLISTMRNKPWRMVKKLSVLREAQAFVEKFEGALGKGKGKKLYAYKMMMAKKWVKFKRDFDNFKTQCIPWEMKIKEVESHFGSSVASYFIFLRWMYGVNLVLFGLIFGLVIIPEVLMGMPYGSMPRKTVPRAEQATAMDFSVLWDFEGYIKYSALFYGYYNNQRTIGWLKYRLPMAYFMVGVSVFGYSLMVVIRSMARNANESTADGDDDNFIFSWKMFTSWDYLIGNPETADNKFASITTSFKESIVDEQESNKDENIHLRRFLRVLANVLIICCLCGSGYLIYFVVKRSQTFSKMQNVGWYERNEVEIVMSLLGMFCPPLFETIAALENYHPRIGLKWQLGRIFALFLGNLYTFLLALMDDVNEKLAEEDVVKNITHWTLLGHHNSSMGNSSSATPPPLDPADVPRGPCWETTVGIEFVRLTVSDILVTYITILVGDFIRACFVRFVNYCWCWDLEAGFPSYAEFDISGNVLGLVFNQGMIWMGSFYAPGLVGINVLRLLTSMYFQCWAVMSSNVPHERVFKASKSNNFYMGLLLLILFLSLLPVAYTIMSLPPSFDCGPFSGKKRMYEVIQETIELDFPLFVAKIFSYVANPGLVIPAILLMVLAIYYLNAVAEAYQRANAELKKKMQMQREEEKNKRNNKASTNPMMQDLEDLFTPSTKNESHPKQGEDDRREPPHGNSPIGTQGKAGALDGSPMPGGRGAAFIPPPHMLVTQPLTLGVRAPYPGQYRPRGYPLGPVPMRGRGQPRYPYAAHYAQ

CCCCCCCCCCCCCC(=O)OC[C@H](COP(=O)(O)OCCN)OC(=O)CCCCCNc1ccc([N+](=O)[O-])c2nonc12 [NBD-PE, 1-myristoyl-2-sn-glycero-3-phosphoethanolamine]
proteoliposome scramblase assay, dithionite and BSA back-extraction of NBD fluor (FL CmTMC1): no differences in PLS activity between truncated and FL CmTMC1 and MuTMC2
proteoliposome scramblase assay, dithionite and BSA back-extraction of NBD fluor (MuTMC2 (truncated)): due to scrambling of the fluorescent NBD-PE lipids by the TMC proteins
proteoliposome scramblase assay, dithionite and BSA back-extraction of NBD fluor (CmTMC1 (truncated)): due to scrambling of the fluorescent NBD-PE lipids by the TMC proteins
proteoliposome scramblase assay, dithionite and BSA back-extraction of NBD fluor (FL MuTMC2): no differences in PLS activity between truncated and FL CmTMC1 and MuTMC2
